Data published in patent US12435080B2, “sGC stimulators” (Tisento Therapeutics Inc., priority 2016, dated 2025).
Values joined by “and” are separate entries in the source; they are usually repeats but may differ in a detail not shown here. Equal values may be shown once.

Biological target: T1, sGC enzyme (Homo sapiens, UniProt Q02108+Q02153)
T1 construct: incorporated into these cells detect cGMP formed by the compounds stimulating the sGC enzyme; host or cells: HEK293 cells stably expressing GloSensor 40F cGMP biosensor
T1 sequence (Q02153 1-619): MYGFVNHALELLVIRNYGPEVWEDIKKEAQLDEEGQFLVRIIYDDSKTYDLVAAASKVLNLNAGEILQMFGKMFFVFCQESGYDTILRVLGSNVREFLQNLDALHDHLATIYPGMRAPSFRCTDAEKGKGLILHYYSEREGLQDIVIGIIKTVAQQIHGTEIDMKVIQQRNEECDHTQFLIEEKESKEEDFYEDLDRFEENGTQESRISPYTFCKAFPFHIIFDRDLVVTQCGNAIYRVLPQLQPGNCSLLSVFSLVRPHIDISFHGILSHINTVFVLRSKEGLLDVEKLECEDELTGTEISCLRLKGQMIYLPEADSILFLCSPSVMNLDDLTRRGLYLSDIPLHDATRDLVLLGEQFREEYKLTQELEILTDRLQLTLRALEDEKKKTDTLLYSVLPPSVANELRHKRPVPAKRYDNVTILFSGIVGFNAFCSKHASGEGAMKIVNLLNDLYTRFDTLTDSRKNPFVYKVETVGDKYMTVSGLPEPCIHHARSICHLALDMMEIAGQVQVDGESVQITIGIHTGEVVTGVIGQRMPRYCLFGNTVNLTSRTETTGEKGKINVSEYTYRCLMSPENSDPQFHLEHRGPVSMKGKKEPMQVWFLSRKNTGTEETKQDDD
T1 sequence (Q02108 1-690): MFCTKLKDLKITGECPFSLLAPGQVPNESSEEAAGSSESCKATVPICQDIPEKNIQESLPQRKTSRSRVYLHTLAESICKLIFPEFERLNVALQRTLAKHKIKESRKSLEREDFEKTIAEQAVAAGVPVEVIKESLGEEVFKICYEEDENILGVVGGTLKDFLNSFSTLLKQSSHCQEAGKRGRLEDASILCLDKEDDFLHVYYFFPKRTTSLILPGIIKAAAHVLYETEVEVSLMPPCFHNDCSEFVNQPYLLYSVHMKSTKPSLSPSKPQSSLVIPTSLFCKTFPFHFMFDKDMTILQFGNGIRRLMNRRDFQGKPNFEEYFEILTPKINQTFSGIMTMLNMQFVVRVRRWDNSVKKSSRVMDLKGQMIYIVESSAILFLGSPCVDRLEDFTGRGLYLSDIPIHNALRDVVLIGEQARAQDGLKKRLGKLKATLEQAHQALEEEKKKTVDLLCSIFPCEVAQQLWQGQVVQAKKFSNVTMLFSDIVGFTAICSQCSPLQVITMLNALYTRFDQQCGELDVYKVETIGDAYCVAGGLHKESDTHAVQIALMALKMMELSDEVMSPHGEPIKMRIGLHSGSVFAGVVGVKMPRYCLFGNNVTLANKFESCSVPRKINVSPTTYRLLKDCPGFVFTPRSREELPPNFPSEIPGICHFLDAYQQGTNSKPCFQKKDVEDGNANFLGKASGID
Experiment: cGMP GloSensor cell-based assay, 384-well format
Settings: HEK293 cells expressing GloSensor 40F cGMP; 10 μM DETA-NONOate; normalized to 30 μM Compound Y; compounds in Table IA; read-out: Glo-sensor AbsEC50
Description: Human embryonic kidney cells (HEK293) cells expressing GloSensor™ 40F cGMP (Part No: CS182801, Promega) were used to evaluate the activity of test compounds. The luminescent biosensors (engineered luciferase) that were incorporated into these cells detect cGMP formed by the compounds stimulating the sGC enzyme and emit luminescence.
cGMP GloSensor cells were maintained in Dulbecco's Modification of Eagle's Medium (DMEM) supplemented with fetal bovine serum (FBS, 10% final) and hygromycine (200 ug/ml). […] Cells were incubated overnight at 37° C. in a humidified chamber with 5% CO2. The next day, medium was removed and cells were replaced with 40 ul/well of GloSensor™, 2 mM (Promega Cat No E1291). Cells were treated for 90 minutes at 25° C. to allow the substrate to equilibrate in the cells. […] For endpoint SAR screening, data were collected after 55 min incubation at room temperature.
Data were fit using a 4-parameter fit (log(agonist) vs. response—variable slope) using GraphPad Prism Software v.5. n=2 for all compounds. […] Compounds failing to elicit a minimum response of 50% are reported as >30 μM or ND.

EC50 | Structure (SMILES)
100 to 1000 nM | Cc1ncc(Cn2nc(-c3nc(C(F)(F)F)n[nH]3)c3cccc(Cl)c32)cn1 [Compound I-46, 7-Chloro-1-((2-methylpyrimidin-5-yl)methyl)-3-(3-(trifluoromethyl)-1H-1,2,4-triazol-5-yl)-1H-indazole]
< 100 nM | Fc1ccccc1Cn1nc(-c2nc(Cl)n[nH]2)c2cccnc21 [Compound I-47, 3-(3-Chloro-1H-1,2,4-triazol-5-yl)-1-(2-fluorobenzyl)-1H-pyrazolo[3,4-b]pyridine]
< 100 nM | Cc1ccc2c(-c3nc(C(F)(F)F)n[nH]3)nn(Cc3ccccc3F)c2n1 [Compound I-50, 1-(2-Fluorobenzyl)-6-methyl-3-(3-(trifluoromethyl)-1H-1,2,4-triazol-5-yl)-1H-pyrazolo[3,4-b]pyridine]
< 100 nM | Fc1cc(F)cc(Cn2nc(-c3nc(C(F)(F)F)n[nH]3)c3cccnc32)c1 [Compound I-51, 1-(3,5-Difluorobenzyl)-3-(3-(trifluoromethyl)-1H-1,2,4-triazol-5-yl)-1H-pyrazolo[3,4-b]pyridine]
< 100 nM | Fc1cccc(Cn2nc(-c3nc(C(F)(F)F)n[nH]3)c3cccnc32)c1 [Compound I-52, 1-(3-Fluorobenzyl)-3-(3-(trifluoromethyl)-1H-1,2,4-triazol-5-yl)-1H-pyrazolo[3,4-b]pyridine]
< 100 nM | Fc1ccc(Cn2nc(-c3nc(C(F)(F)F)n[nH]3)c3cccnc32)cc1 [Compound I-53, 1-(4-Fluorobenzyl)-3-(3-(trifluoromethyl)-1H-1,2,4-triazol-5-yl)-1H-pyrazolo[3,4-b]pyridine]
< 100 nM | Cc1ccc(Cn2nc(-c3nc(C(F)(F)F)n[nH]3)c3cccnc32)cc1 [Compound I-54, 1-(4-Methylbenzyl)-3-(3-(trifluoromethyl)-1H-1,2,4-triazol-5-yl)-1H-pyrazolo[3,4-b]pyridine]
100 to 1000 nM | C=C(C)c1n[nH]c(-c2nn(Cc3ccccc3F)c3ncccc23)n1 [Compound I-55]
100 to 1000 nM | Fc1ccccc1Cn1nc(-c2nc(N3CCOCC3)n[nH]2)c2cccnc21 [Compound I-57]
< 100 nM | FCc1n[nH]c(-c2nn(Cc3ccccc3F)c3ncccc23)n1 [Compound I-58, 1-(2-Fluorobenzyl)-3-(3-(fluoromethyl)-1H-1,2,4-triazol-5-yl)-1H-pyrazolo[3,4-b]pyridine]
100 to 1000 nM | Fc1ccccc1Cn1nc(-c2nc(C3(C(F)(F)F)CC3)n[nH]2)c2cccnc21 [Compound I-59, 1-(2-fluorobenzyl)-3-(3-(1-(trifluoromethyl)cyclopropyl)-1H-1,2,4-triazol-5-yl)-1H-pyrazolo[3,4-b]pyridine]
< 100 nM | Cc1n[nH]c(-c2nn(Cc3ccccc3F)c3ncccc23)n1 [Compound I-60, 1-(2-Fluorobenzyl)-3-(3-methyl-1H-1,2,4-triazol-5-yl)-1H-pyrazolo[3,4-b]pyridine]
< 100 nM | Cc1ncc(Cn2nc(-c3nc(C(F)(F)F)n[nH]3)c3ccc(F)cc32)cn1 [Compound I-61, 6-Fluoro-1-((2-methylpyrimidin-5-yl)methyl)-3-(3-(trifluoromethyl)-1H-1,2,4-triazol-5-yl)-1H-indazole]
< 100 nM | CC1(c2n[nH]c(-c3nn(Cc4ccccc4F)c4ncccc34)n2)CC1 [Compound I-63, 1-(2-Fluorobenzyl)-3-(3-(1-methylcyclopropyl)-1H-1,2,4-triazol-5-yl)-1H-pyrazolo[3,4-b]pyridine]
< 100 nM | Fc1ccccc1Cn1nc(-c2nc(C(F)(F)Cl)n[nH]2)c2cccnc21 [Compound I-65, 3-(3-(Chlorodifluoromethyl)-1H-1,2,4-triazol-5-yl)-1-(2-fluorobenzyl)-1H-pyrazolo[3,4-b]pyridine]
> 1000 nM | CCC(=O)c1n[nH]c(-c2nn(Cc3ccccc3F)c3ncccc23)n1 [Compound I-66]
< 100 nM | Fc1cccc(Cn2nc(-c3nc(C(F)F)n[nH]3)c3cccnc32)c1F [Compound I-67, 1-(2,3-Difluorobenzyl)-3-(3-(difluoromethyl)-1H-1,2,4-triazol-5-yl)-1H-pyrazolo[3,4-b]pyridine]
< 100 nM | Fc1ccccc1Cn1nc(-c2nc(C3CC3)n[nH]2)c2cccnc21 [Compound I-68, 3-(3-Cyclopropyl-1H-1,2,4-triazol-5-yl)-1-(2-fluorobenzyl)-1H-pyrazolo[3,4-b]pyridine]
100 to 1000 nM | Fc1ccccc1Cn1nc(-c2nc(CCCCl)n[nH]2)c2cccnc21 [Compound I-69, 3-(3-(3-chloropropyl)-1H-1,2,4-triazol-5-yl)-1-(2-fluorobenzyl)-1H-pyrazolo[3,4-b]pyridine]
100 to 1000 nM and > 1000 nM | CC1(c2n[nH]c(-c3nn(Cc4ccccc4F)c4ncccc34)n2)COC1 [Compound I-70, 1-(2-fluorobenzyl)-3-(3-(3-methyloxetan-3-yl)-1H-1,2,4-triazol-5-yl)-1H-pyrazolo[3,4-b]pyridine]
> 1000 nM and < 100 nM | Fc1ccccc1Cn1nc(-c2nc(C3CNC3)n[nH]2)c2cccnc21 [Compound I-73, 3-(3-(azetidin-3-yl)-1H-1,2,4-triazol-5-yl)-1-(2-fluorobenzyl)-1H-pyrazolo[3,4-b]pyridine]
100 to 1000 nM | CN(C)C(=O)c1n[nH]c(-c2nn(Cc3ccccc3F)c3ncccc23)n1 [Compound I-74, 5-(1-(2-fluorobenzyl)-1H-pyrazolo[3,4-b]pyridin-3-yl)-N,N-dimethyl-1H-1,2,4-triazole-3-carboxamide]
100 to 1000 nM | O=C(N1CC(c2n[nH]c(-c3nn(Cc4ccccc4F)c4ncccc34)n2)C1)C(F)(F)F [Compound I-75]
100 to 1000 nM | CC(C)(C)OC(=O)NC1(c2n[nH]c(-c3nn(Cc4ccccc4F)c4ncccc34)n2)COC1 [Compound I-76, tert-Butyl (3-(5-(1-(2-fluorobenzyl)-1H-pyrazolo[3,4-b]pyridin-3-yl)-1H-1,2,4-triazol-3-yl)oxetan-3-yl)carbamate]
100 to 1000 nM | Fc1ccccc1Cn1nc(-c2nc(C3CC(F)(F)C3)n[nH]2)c2cccnc21 [Compound I-77, 3-(3-(3,3-Difluorocyclobutyl)-1H-1,2,4-triazol-5-yl)-1-(2-fluorobenzyl)-1H-pyrazolo[3,4-b]pyridine]
> 1000 nM | Fc1ccccc1Cn1nc(-c2nc(C3CCOCC3)n[nH]2)c2cccnc21 [Compound I-78, 1-(2-Fluorobenzyl)-3-(3-(tetrahydro-2H-pyran-4-yl)-1H-1,2,4-triazol-5-yl)-1H-pyrazolo[3,4-b]pyridine]
> 1000 nM | NC1(c2n[nH]c(-c3nn(Cc4ccccc4F)c4ncccc34)n2)COC1 [Compound I-79, 3-(5-(1-(2-fluorobenzyl)-1H-pyrazolo[3,4-b]pyridin-3-yl)-1H-1,2,4-triazol-3-yl)oxetan-3-amine]
> 1000 nM | Fc1ccccc1Cn1nc(-c2nc(C3(c4ccccc4)CC3)n[nH]2)c2cccnc21 [Compound I-81, 1-(2-Fluorobenzyl)-3-(3-(1-phenylcyclopropyl)-1H-1,2,4-triazol-5-yl)-1H-pyrazolo[3,4-b]pyridine]
100 to 1000 nM | COc1n[nH]c(-c2nn(Cc3ccccc3F)c3ncccc23)n1 [Compound I-82, 1-(2-fluorobenzyl)-3-(3-methoxy-1H-1,2,4-triazol-5-yl)-1H-pyrazolo[3,4-b]pyridine]
